Source: ChEMBL document CHEMBL4359837, “Discovery of 2-(4-Chloro-3-(trifluoromethyl)phenyl)-N-(4-((6,7-dimethoxyquinolin-4-yl)oxy)phenyl)acetamide (CHMFL-KIT-64) as a Novel Orally Available Potent Inhibitor against Broad-Spectrum Mutants of c-KIT Kinase for Gastrointestinal Stromal Tumors” (J Med Chem, 2019)
Active and inactive are the calls of the source. The calls are words filed in the database; no cut-off is given here.

Assays:
[1] = tested on: Mast/stem cell growth factor receptor Kit (Homo sapiens), P10721 [UNDEFINED MUTATION]; conditions: GISTT1, 0.1 uM
Description: Inhibition of c-KIT 560 to 578 deletion/T670I mutant in human GISTT1 cells assessed as reduction in AKT phosphorylation at T308 residue at 0.1 uM measured after 2 hrs by Western blot analysis

[2] = tested on: Mast/stem cell growth factor receptor Kit (Homo sapiens), P10721 [UNDEFINED MUTATION]; conditions: GISTT1, 0.1 uM; remark: listed apart in the source
Description: Inhibition of c-KIT 560 to 578 deletion/T670I mutant in human GISTT1 cells assessed as reduction in STAT3 phosphorylation at Y705 residue at 0.1 uM measured after 2 hrs by Western blot analysis

[3] = tested on: Mast/stem cell growth factor receptor Kit (Homo sapiens), P10721 [UNDEFINED MUTATION]; conditions: GISTT1, 0.1 uM; remark: listed apart in the source
Description: Inhibition of c-KIT 560 to 578 deletion/T670I mutant in human GISTT1 cells assessed as reduction in c-KIT autophosphorylation at Y703 residue at 0.1 uM measured after 2 hrs by Western blot analysis

[4] = tested on: Mast/stem cell growth factor receptor Kit (Homo sapiens), P10721 [UNDEFINED MUTATION]; conditions: 0.1 uM
Description: Inhibition of c-KIT 560 to 578 deletion/T670I mutant in human GIST5R assessed as reduction in pS6 phosphorylation at S236 residue at 0.1 uM measured after 2 hrs by Western blot analysis

[5] = tested on: Mast/stem cell growth factor receptor Kit (Homo sapiens), P10721 [UNDEFINED MUTATION]; conditions: GISTT1, 0.1 uM; remark: listed apart in the source
Description: Inhibition of c-KIT 560 to 578 deletion mutant in human GISTT1 cells assessed as reduction in c-KIT autophosphorylation at Y823 residue at 0.1 uM measured after 2 hrs by Western blot analysis

[6] = tested on: Mast/stem cell growth factor receptor Kit (Homo sapiens), P10721 [UNDEFINED MUTATION]; conditions: GISTT1, 0.1 uM; remark: listed apart in the source
Description: Inhibition of c-KIT 560 to 578 deletion mutant in human GISTT1 cells assessed as reduction in STAT3 phosphorylation at Y705 residue at 0.1 uM measured after 2 hrs by Western blot analysis

[7] = tested on: Mast/stem cell growth factor receptor Kit (Homo sapiens), P10721 [UNDEFINED MUTATION]; conditions: 0.1 uM; remark: listed apart in the source
Description: Inhibition of c-KIT 560 to 578 deletion/T670I mutant in human GIST5R assessed as reduction in AKT phosphorylation at S473 residue at 0.1 uM measured after 2 hrs by Western blot analysis

[8] = tested on: Mast/stem cell growth factor receptor Kit (Homo sapiens), P10721 [UNDEFINED MUTATION]; conditions: GISTT1, 0.1 uM; remark: listed apart in the source
Description: Inhibition of c-KIT 560 to 578 deletion/T670I mutant in human GISTT1 cells assessed as reduction in pS6 phosphorylation at S235 residue at 0.1 uM measured after 2 hrs by Western blot analysis

Mus musculus [9] = format: functional, organism-based; conditions: BALB/c, 80 mg/kg
[10] = Inhibition of recombinant human GST-tagged FLT4 cytoplasmic domain Q890H/V1128L/H1146R mutant (800 to 1297 residues) expressed in baculovirus expression system by Z-lyte assay
[11] = target: T1, Mast/stem cell growth factor receptor Kit (Homo sapiens, UniProt P10721, 560-578DEL/T670I)
GISTT1 [12] = format: functional
[13] = Antitumor activity against mouse BAF3(transformed) cells harboring c-KIT D820G mutant implanted in BALB/c nu mouse assessed as tumor growth inhibition at 80 mg/kg/day, po administered via gavage for 9 days relative to control; format: functional; conditions: 216 h, read-out: TGI
[14] = Half life in mouse at 10 mg/kg, po by LC-MS/MS analysis; format: ADME, organism-based; conditions: in vivo
[15] = target: T1, Mast/stem cell growth factor receptor Kit; format: cell-based, GISTT1
[16] = target: RAC-alpha serine/threonine-protein kinase (Homo sapiens) (UniProt P31749); format: cell-based; conditions: GISTT1
[17] = tested on: Mast/stem cell growth factor receptor Kit (Homo sapiens), P10721 [L576P]; conditions: Mus musculus
[18] = target: T2, Mast/stem cell growth factor receptor Kit (Homo sapiens, UniProt P10721, 560-578DEL); format: cell-based, GISTT1
[19] = target: Macrophage colony-stimulating factor 1 receptor (Homo sapiens, UniProt P07333); experiment: Inhibition of recombinant human His-tagged CSF1R cytoplasmic domain (538 to 910 residues) expressed in baculovirus expression system by Z-lyte assay
Mus musculus [20] = format: functional, organism-based; conditions: BALB/c, 80 mg/kg, TDE = time-dependent effect
[21] = target: Platelet-derived growth factor receptor alpha (Homo sapiens, UniProt P16234); experiment: Inhibition of recombinant human GST-tagged PDGFRA cytoplasmic domain (550 to 1089 residues) expressed in baculovirus expression system by Z-lyte assay
Mus musculus [22] = format: functional, organism-based; conditions: BALB/c, 80 mg/kg; remark: listed apart in the source
[23] = tested on: Mast/stem cell growth factor receptor Kit (Homo sapiens), P10721 [T670I]; conditions: Mus musculus
Description: Inhibition of c-KIT T670I mutant in mouse BAF3(transformed) cells assessed as growth inhibition after 72 hrs by CCK8 assay

[24] = target: Proto-oncogene tyrosine-protein kinase receptor Ret (Homo sapiens, UniProt P07949); experiment: Binding affinity to wild-type human partial length RET (E713 to D1014 residues) expressed in bacterial expression system assessed as residual binding level at 1 uM by Kinomescan method relative to control
[25] = target: T2, Mast/stem cell growth factor receptor Kit; format: cell-based, GISTT1; remark: listed apart in the source
[26] = target: T2, Mast/stem cell growth factor receptor Kit; format: cell-based, GISTT1; remark: listed apart in the source
[27] = Toxicity in BALB/c nu mouse implanted with mouse BAF3(transformed) cells harboring c-KIT Y823D mutant assessed as change in body weight at 40 to 80 mg/kg/day, po administered via gavage for 9 days measured daily during compound dosing; format: organism-based; conditions: in vivo, 216 h
[28] = target: Epithelial discoidin domain-containing receptor 1 (Homo sapiens, UniProt Q08345); experiment: Inhibition of human GST-tagged DDR1 catalytic domain (440 to 876 residues) expressed in baculovirus expression system by Lanthascreen Eu-binding assay
[29] = Tmax in Beagle dog at 5 mg/kg, po by LC-MS/MS analysis; format: ADME, organism-based, Canis lupus familiaris; conditions: in vivo
GISTT1 [30] = format: functional, Homo sapiens
Mus musculus [31] = experiment: Antitumor activity against mouse BAF3(transformed) cells harboring c-KIT Y823D mutant implanted in BALB/c nu mouse assessed as tumor growth inhibition administered via oral gavage for 9 days; format: functional
Mus musculus [32] = format: functional, organism-based; conditions: BALB/c, 80 mg/kg, TDE = time-dependent effect; remark: listed apart in the source
[33] = target: Platelet-derived growth factor receptor beta (Homo sapiens, UniProt P09619); experiment: Inhibition of recombinant human His-tagged PDGFRB cytoplasmic domain (558 to 1106 residues) expressed in baculovirus expression system by Z-lyte assay
[34] = Toxicity in BALB/c nu mouse implanted with mouse BAF3(transformed) cells harboring c-KIT D820G mutant assessed as change in body weight at 40 to 80 mg/kg/day, po administered via gavage for 9 days measured daily during compound dosing; format: organism-based; conditions: in vivo, 216 h

T2 sequence (P10721 whole entry, looked up, stated change not applied, the tested form may be a part): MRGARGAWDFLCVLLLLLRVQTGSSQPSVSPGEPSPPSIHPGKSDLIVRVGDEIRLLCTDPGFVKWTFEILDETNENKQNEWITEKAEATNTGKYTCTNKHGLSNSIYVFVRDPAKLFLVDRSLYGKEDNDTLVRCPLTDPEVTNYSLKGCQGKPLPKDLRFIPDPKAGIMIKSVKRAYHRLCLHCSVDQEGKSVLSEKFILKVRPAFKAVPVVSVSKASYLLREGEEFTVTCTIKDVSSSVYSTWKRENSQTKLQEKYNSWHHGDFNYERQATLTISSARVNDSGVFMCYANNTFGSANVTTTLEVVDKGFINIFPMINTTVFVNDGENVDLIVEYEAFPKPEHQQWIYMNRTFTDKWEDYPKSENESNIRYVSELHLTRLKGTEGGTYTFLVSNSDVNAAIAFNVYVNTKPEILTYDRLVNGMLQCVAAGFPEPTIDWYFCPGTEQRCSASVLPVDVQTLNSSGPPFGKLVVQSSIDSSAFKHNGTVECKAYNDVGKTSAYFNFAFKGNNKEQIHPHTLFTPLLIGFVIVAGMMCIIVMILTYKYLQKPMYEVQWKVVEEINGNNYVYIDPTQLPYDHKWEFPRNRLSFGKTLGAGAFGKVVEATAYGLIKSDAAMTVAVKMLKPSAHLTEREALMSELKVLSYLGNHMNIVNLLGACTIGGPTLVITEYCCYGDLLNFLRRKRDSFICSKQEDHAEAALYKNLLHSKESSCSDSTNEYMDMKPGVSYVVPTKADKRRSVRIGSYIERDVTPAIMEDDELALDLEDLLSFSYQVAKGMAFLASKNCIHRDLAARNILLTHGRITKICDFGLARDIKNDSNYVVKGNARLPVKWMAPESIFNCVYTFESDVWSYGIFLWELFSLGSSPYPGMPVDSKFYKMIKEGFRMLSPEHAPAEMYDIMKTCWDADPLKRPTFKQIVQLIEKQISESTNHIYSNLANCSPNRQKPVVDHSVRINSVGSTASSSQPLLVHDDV
Mast/stem cell growth factor receptor Kit (Homo sapiens), P10721 [UNDEFINED MUTATION], sequence (P10721 whole entry, looked up, change not shown): as the sequence (P10721 whole entry, looked up, stated change not applied, the tested form may be a part) above
T1 sequence (P10721 whole entry, looked up, stated change not applied): as the sequence (P10721 whole entry, looked up, stated change not applied, the tested form may be a part) above
Platelet-derived growth factor receptor alpha, sequence (P16234 whole entry, the tested form may be a part): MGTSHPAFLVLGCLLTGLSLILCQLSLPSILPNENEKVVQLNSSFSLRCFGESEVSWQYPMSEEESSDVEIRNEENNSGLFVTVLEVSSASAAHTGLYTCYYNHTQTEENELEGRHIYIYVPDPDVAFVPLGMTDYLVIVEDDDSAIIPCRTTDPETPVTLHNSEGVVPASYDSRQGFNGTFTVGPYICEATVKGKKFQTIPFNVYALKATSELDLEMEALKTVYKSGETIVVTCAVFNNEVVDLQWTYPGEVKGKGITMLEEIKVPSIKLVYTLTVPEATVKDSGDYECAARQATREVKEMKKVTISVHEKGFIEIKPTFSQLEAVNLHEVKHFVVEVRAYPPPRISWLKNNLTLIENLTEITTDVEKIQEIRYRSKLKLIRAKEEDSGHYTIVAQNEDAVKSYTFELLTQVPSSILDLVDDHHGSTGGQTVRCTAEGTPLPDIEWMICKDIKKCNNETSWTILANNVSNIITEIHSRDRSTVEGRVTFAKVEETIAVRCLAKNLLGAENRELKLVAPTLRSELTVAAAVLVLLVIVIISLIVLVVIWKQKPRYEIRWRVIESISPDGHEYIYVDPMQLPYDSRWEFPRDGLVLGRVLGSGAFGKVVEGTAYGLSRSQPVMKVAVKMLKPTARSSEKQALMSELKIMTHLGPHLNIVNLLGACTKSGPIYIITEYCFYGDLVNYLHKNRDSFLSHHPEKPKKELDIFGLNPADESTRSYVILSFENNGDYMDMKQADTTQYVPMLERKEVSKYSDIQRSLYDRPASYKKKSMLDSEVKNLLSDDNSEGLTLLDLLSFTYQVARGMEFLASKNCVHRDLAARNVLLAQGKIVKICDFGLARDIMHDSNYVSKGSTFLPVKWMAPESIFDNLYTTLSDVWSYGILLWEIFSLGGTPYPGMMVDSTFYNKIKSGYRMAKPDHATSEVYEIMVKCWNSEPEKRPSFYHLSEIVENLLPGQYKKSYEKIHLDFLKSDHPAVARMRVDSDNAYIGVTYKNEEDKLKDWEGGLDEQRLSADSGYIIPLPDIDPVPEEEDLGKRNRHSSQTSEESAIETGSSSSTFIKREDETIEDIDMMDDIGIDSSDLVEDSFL
Proto-oncogene tyrosine-protein kinase receptor Ret, sequence (P07949 whole entry, the tested form may be a part): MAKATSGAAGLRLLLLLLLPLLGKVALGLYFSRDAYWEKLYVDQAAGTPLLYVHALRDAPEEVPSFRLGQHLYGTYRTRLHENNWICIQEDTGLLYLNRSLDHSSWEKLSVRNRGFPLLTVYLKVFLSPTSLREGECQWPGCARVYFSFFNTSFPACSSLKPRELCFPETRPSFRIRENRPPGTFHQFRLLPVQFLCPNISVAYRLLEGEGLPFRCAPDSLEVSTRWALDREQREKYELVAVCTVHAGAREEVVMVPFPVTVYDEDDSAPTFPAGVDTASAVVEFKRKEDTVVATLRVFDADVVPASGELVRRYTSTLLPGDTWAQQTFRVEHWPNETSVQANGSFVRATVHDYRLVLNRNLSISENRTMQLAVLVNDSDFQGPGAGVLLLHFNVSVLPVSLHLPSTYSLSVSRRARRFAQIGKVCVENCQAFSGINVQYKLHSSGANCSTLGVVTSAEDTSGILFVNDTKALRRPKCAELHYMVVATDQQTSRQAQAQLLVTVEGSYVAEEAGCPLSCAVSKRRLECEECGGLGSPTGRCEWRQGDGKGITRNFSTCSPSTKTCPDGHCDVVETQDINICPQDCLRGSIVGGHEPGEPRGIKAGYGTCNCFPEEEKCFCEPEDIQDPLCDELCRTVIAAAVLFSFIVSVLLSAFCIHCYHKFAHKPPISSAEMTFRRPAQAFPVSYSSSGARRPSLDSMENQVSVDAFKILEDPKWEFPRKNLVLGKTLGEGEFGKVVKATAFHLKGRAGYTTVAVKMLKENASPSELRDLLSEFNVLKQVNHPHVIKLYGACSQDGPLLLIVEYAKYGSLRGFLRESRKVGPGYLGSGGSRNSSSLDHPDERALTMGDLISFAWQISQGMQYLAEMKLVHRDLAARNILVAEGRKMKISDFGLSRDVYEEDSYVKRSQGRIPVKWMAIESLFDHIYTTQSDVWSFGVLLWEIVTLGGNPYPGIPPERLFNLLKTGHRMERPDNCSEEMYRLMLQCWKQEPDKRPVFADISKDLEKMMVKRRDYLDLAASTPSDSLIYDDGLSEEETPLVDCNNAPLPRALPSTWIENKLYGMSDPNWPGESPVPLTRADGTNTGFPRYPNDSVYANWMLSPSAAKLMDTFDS

CCN(CC)CCNC(=O)c1c(C)[nH]c(/C=C2\C(=O)Nc3ccc(F)cc32)c1C [SUNITINIB]
inhibition [1]: Active | inhibition [2]: Active | inhibition [3]: Active | inhibition [4]: Active | inhibition [5]: Active | inhibition [6]: Active | inhibition [7]: Active | inhibition [8]: Active

COc1cc2nccc(Oc3ccc(NC(=O)Cc4ccc(Cl)c(C(F)(F)F)c4)cc3)c2cc1OC
inhibition (Mus musculus [9]): inactive | IC50 [10]: 121 nM | EC50 [11]: < 100 nM | TGI (GISTT1 [12]; Homo sapiens, 40 mg/kg): Dose-dependent effect | inhibition in vivo at 40 mg/kg/day (GISTT1 [12]; Mus musculus, GISTT1, po, 672 h, read-out: TGI): 76.4% | inhibition in vivo at 80 mg/kg/day [13]: 92.7% | half-life [14]: 4.5 h | EC50 [15]: < 100 nM | inhibition [16]: inactive | GI50 [17]: 1 nM | EC50 [18]: < 100 nM | IC50 [19]: 18 nM | inhibition (Mus musculus [20]): Tde | IC50 [21]: 25 nM | inhibition (Mus musculus [22]): inactive | GI50 [23]: 4 nM | Activity [24]: < 1% | EC50 [25]: < 100 nM | EC50 [26]: < 100 nM | Activity [27]: Non-Toxic | IC50 [28]: 135 nM | Tmax [29]: 5.33 h | Activity (GISTT1 [30]): 0.27 g | TGI (Mus musculus [31]): Dose-dependent effect | inhibition (Mus musculus [32]): Tde | IC50 [33]: 97 nM | Activity [34]: Non-Toxic
